Key:
[1] = tested on: platelets in human whole blood; experiment: OTEG platelet aggregate size in ADP-activated human whole blood; format: cell-based; conditions: FIG. 8B
Experimental: FIGS. 8A, 8B: Preliminary studies to assess platelet aggregation using OTEG methodology. FIG. 8A: Increasing aggregate radius, a, of polystyrene beads (rad=1.5 μm) caused by adding MgCl2 salt is detected by OTEG. Aggregate size was related with salt concentration, confirmed by other reports. FIG. 8B: In human whole blood, OTEG detects a 5-fold and 2.5-fold increase in aggregate size with addition of 10 and 5 μM ADP relative to blood without ADP (control). […] To enable platelet function assessment (PLT channel) via the embodiment of the OTEG device of the present invention, a new strategy was implemented to quantify platelet aggregation in whole blood. […] To estimate the rate and extent of platelet aggregation, speckle frames are processed and MSD values are calculated, as above (FIG. 5; box 3). […] The effective particle radius, a, is then obtained from the Stokes-Einstein relation (SER) (FIG. 5: box 4c), the aggregate growth from the baseline at time t=0 is plotted, and the maximum extent of platelet aggregation (RPLT) is estimated at 10 min to quantify platelet function (FIG. 12B). […] We further verified the capability to detect platelet aggregation in ADP-activated blood and monitored the change of effective aggregate radius. […] Clearly, the effective aggregate radius increase with ADP concentration and can be detected with OTEG with high sensitivity. […]

[2] = tested on: platelets in platelet rich plasma; experiment: OTEG platelet aggregation/disaggregation in platelet rich plasma specimens; format: cell-based; conditions: FIG. 19A
Experimental: FIG. 15B is a block-scheme representing an embodiment of the processing algorithm according to the invention for calculating the platelet aggregate size from speckle fluctuations in the plasma. Platelet rich plasma specimen is transferred into an OTEG cartridge, customized for platelet function assessment and preloaded with 20 μl Adenosine 5′-diphosphate solution (Sigma-Aldrich) (i.e. 5 μM final concentration of ADP in the […]). The cartridge is inserted in the OTEG device and speckle acquisition begins immediately. During acquisition, ADP triggers conformational changes followed by aggregation, which increase the average scattering particle radius. Since Ca′ ions are absent, coagulation cascade is not initiated and the plasma appears as a primarily viscous liquid with the viscosity of η=3 centipoises (@ 37° C.), particularly at small length scales probed by platelets. Compared to small isolated platelets, large aggregates experience a shorter range of diffusive motion and induce slower speckle fluctuations. To estimate the rate of platelet aggregation, speckle frames are processed and speckle intensity autocorrelation functions are calculated. Since plasma is an optically dilute material, the mean square displacements (MSD) values of platelet aggregates can be extracted from the g2(t) curves, using the DLS formalism, as shown in FIG. 7(B), box 2. Fitting the MSD to a linear model of MSD=6Dt at early times provides the diffusion coefficient, D, of scattering particles. The effective scattering radius is then obtained from the Stokes-Einstein relation as: α=KbT/(6πDη), where Kb is the Boltzman constant and T is the temperature (degrees Kelvin).

| Structure (SMILES) | increase in aggregate size relative to blood without ADP (control) ([1]; 5 μM ADP) | increase in aggregate size relative to blood without ADP (control) ([1]; 10 μM ADP) | platelet aggregation detected by OTEG ([2]; ADP final concentration 5 μM) | platelet aggregation detected by OTEG ([2]; ADP 5 μM plus Clopidogrel 3 μM) | platelet aggregation detected by OTEG ([2]; ADP 5 μM plus Clopidogrel 30 μM) |
| --- | --- | --- | --- | --- | --- |
| Nc1ncnc2c1ncn2[C@@H]1O[C@H](COP(=O)(O)OP(=O)(O)O)[C@@H](O)[C@H]1O [ADP, Adenosine 5′-diphosphate] | 2.5 fold | 5 fold | rapid and complete platelet aggregation |  |  |
| COC(=O)[C@H](c1ccccc1Cl)N1CCc2sccc2C1 [Clopidogrel] |  |  |  | rapid initial aggregation, followed by a rapid disaggregation | no aggregation |

— patent US12092631B2, “Optical thromboelastography systems and methods” (The General Hospital Corporation, priority 2014, dated 2024)
